The test system of assay [1] is platelet aggregation. Nature of the assay: Light transmission aggregometry (LTA) in PPACK platelet rich plasma, ADP-induced aggregation. It counts as cell-based, human. The conditions noted are these: samples in which Ultegra measures inhibition of 80% or greater, average lower end of a range reaching greater than 80%, ADP 20 μM. How it is done: Sufficient blood volume was collected to complete matched comparisons for each donor in all three assays. Using a 19 g butterfly needle, blood was collected by venipuncture into a plastic syringe and transferred to a tube containing PPACK anticoagulant (0.3 mM final concentration) or into PPACK vacuettes provided by Ultegra®. An EDTA baseline tube was also drawn per Plateletworks® recommendation. One 10 mL sample of PPACK blood was centrifuged at 135 g for 15 minutes to obtain platelet rich plasma (“PRP”) for use in traditional light transmission aggregometry. The residual blood from this tube was centrifuged at 1500 g for 15 minutes to obtain platelet poor plasma (“PPP”). PRP was diluted to 250,000/mm^3 with autologous PPP. Diluted PRP (0.5 ml) was added to an aggregation cuvette and placed into the 37° C. aggregation chamber. Eptifibatide (125-4000 nM) or tirofiban (25-200 nM) was added to PRP, incubated for at least two minutes. 50 μl ADP (20 μM final concentration) was added to 0.45 ml PRP and the aggregation response was recorded. A baseline aggregation response (no antagonist present) was determined for each donor. Percent aggregation was calculated at the point of maximum light transmission obtained within five minutes. Percent inhibition of aggregation (IPA) was calculated using the following formula: [formula]

Assay [2] has as its system platelet aggregation. In words: ICHOR/Plateletworks whole blood platelet aggregation (platelet count), PPACK anticoagulant, ADP agonist. It counts as cell-based, human. The conditions noted are these: for platelet inhibition measured by ICHOR/Plateletworks: samples in which Ultegra measures inhibition of 80% or greater, average lower end of a range reaching greater than 80%, PPACK whole blood, ADP 20 μM. The procedure:
Whole blood platelet aggregation was performed using a procedure modified from that outlined in the Helena Plateletworks® brochure. PPACK anticoagulant was used instead of citrate due to the well-documented effect of citrate overestimating the level of platelet inhibition by all currently approved GPIIb-IIIa antagonists (Phillips et al., “Effect of Ca^++ on Integrilin™ GPIIb-IIIa Interactions: Enhanced GPIIb-IIIa Binding and Inhibition of Platelet Aggregation by Reductions in the Concentration of Ionized Calcium in Plasma Anticoagulated with Citrate,” Circulation 96:1488-1494 (1997); Nannizzi-Alaimo et al., “Effect of Citrate Anticoagulation and Platelet Agonist Concentration on the Inhibitory Activities of GPIIb-IIIa Antagonists,” Circulation 100:1710 (1999); Kereiakes et al., “Differential Effects of Citrate Versus PPACK Anticoagulation on Measured Platelet Inhibition by Abciximab, Eptifibatide and Tirofiban,” J. Thromb. Thrombolysis 12:123-127 (2001); Jennings et al., “The Pharmacodynamics of Parenteral Glycoprotein IIb/IIIa Inhibitors,” J. Interv. Cardiol. 15(1):45-60 (2002), each of which is hereby incorporated by reference in its entirety). For this assay, 1.0 ml of PPACK anticoagulated whole-blood was mixed with increasing concentrations of eptifibatide or tirofiban and incubated for at least 2 minutes. After addition of ADP (20 μM), the tube was inverted 15-20 times to ensure mixing, and the platelet count was performed immediately (test sample). A baseline tube was also drawn and handled exactly as the antagonist sample tube minus the addition of agonist. A platelet count was also performed on blood collected into EDTA per the manufacturer's instructions. Percent inhibition of platelet aggregation was obtained from the platelet inhibition/aggregation calculation wheel provided with Plateletworks®.
When testing samples containing Reopro, the ICHOR instrument never achieves more than 60% inhibition of aggregation. […]

The values below come from patent publication US20050019742A1, “Methods for assessment of platelet aggregation” (priority 2002, published 2005).

Where a SMILES comes first, the peptide text is derived from it. Bridges are numbered along the chain shown (N, C = ends). [ ]: non-standard residue; d: D form. hArg = N=C(N)NCCCC[C@H](N)C(=O)O; Mpa = O=C(O)CCS A value given as a limit tells only on which side of the number the result lay.

With `N=C(N)NCCCC[C@@H]1NC(=O)CCSSC[C@@H](C(N)=O)NC(=O)[C@@H]2CCCN2C(=O)[C@H](Cc2c[nH]c3ccccc23)NC(=O)[C@H](CC(=O)O)NC(=O)CNC1=O` [eptifibatide] ([Mpa][hArg]GDWPC-NH2; disulfide 1-7), the “platelet inhibition measured by LTA” value in assay [1] was not below 30%. Further, the “platelet inhibition measured by ICHOR/Plateletworks” value in assay [2] is listed as not below 30%.
`CCCCS(=O)(=O)N[C@@H](Cc1ccc(OCCCCC2CCNCC2)cc1)C(=O)O` [tirofiban]: the “platelet inhibition measured by LTA” value in assay [1] is listed as not below 35%. Besides, in assay [2], the “platelet inhibition measured by ICHOR/Plateletworks” value is recorded as not below 35%.

B1: Reopro: antibody based GPIIbIIIa antagonist (antibody, chains of the INN, looked up, V domains shown)
VH: EVQLQQSGTVLARPGASVKMSCEASGYTFTNYWMHWVKQRPGQGLEWIGAIYPGNSDTSYIQKFKGKAKLTAVTSTTSVYMELSSLTNEDSAVYYCTLYDGYYVFAYWGQGTLVTVSA
VL: EIVLTQSPVTLSVTPGDSVSLSCRASRDISNNLHWFQQTSHESPRLLIKYASQSMSGIPSRFSGSGSGTDFTLSINSVETEDFGMYFCQQTNSWPYTFGGGTKLEIK
modifications: Fab
notes: antibody based GPIIbIIIa antagonist
With B1, the “inhibition of aggregation (maximum achieved on ICHOR instrument)” value in assay [2] (samples containing Reopro, microaggregates are counted as aggregation) was not above 60%.
